Values belong to the compound of their own block, whether it stands above or below them.
Key:
[1] = molecular target: PI3-kinase p110-alpha/p85-alpha (Homo sapiens, UniProt P42336); assay: Inhibition of PI3K p110alpha/p85alpha (unknown origin) using PIP2 as substrate preincubated for 15 mins followed by substrate addition measured after 1 hr in presence of ATP by TR-FRET assay; assay type: protein-complex assay
mTORC1 [2] = molecular target: T1, mTORC1 (Homo sapiens, UniProt P42345+Q8N122+Q9BVC4); assay: Inhibition of mTORC1 in human PC-3 cells assessed as measuring phosphorylated S6K level incubated for 24 hrs by AlphaLISA assay; assay type: cell-based
mTORC2 [3] = molecular target: T2, mTORC2 (Homo sapiens, UniProt P42345+Q6R327+Q9BPZ7+Q9BVC4); assay: Inhibition of mTORC2 in human PC-3 cells assessed as measuring phosphorylated Akt level incubated for 24 hrs by AlphaLISA assay; assay type: cell-based
T2 sequence (Q6R327 whole entry, other chains not shown): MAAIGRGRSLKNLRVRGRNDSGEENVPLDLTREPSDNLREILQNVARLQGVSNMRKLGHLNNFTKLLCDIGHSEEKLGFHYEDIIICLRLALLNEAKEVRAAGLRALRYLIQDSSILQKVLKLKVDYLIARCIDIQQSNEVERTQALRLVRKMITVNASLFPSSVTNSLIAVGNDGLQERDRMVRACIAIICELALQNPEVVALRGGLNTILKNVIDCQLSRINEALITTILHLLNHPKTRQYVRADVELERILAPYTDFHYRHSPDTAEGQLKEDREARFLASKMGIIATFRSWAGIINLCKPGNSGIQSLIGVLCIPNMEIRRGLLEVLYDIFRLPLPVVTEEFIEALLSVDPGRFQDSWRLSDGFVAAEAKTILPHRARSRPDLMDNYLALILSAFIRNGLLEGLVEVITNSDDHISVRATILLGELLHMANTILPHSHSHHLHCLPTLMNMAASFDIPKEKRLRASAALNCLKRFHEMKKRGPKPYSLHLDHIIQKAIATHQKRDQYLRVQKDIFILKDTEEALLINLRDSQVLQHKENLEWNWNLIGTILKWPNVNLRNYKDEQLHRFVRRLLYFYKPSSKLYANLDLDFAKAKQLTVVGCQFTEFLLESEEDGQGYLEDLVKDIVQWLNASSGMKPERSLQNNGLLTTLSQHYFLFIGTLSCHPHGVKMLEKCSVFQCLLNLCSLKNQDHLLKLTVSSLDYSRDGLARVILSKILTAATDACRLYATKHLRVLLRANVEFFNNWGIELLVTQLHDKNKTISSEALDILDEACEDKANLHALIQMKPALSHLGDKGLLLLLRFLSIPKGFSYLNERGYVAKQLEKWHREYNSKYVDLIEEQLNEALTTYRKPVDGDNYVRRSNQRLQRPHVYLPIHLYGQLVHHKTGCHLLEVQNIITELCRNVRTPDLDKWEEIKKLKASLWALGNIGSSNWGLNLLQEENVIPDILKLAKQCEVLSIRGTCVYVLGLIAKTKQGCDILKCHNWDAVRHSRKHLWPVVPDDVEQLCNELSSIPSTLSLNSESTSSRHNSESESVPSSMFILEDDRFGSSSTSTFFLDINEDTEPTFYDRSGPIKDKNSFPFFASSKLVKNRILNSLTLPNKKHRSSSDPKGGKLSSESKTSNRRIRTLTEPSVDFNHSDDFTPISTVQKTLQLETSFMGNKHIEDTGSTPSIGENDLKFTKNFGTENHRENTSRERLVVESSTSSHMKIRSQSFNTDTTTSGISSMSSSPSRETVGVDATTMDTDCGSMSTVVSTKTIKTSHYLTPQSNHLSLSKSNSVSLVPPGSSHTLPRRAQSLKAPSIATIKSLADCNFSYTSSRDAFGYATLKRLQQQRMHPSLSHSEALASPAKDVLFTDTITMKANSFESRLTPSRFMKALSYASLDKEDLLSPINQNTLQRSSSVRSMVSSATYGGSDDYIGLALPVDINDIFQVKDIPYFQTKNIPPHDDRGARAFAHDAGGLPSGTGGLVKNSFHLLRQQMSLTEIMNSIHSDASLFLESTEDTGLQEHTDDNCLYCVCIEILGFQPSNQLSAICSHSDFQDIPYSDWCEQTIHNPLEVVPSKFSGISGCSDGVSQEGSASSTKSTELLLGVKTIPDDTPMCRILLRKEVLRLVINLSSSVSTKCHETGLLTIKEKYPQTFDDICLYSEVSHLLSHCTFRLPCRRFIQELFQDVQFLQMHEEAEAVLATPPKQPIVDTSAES
T2 sequence (Q9BPZ7 2-522 limits assumed, other chains not shown): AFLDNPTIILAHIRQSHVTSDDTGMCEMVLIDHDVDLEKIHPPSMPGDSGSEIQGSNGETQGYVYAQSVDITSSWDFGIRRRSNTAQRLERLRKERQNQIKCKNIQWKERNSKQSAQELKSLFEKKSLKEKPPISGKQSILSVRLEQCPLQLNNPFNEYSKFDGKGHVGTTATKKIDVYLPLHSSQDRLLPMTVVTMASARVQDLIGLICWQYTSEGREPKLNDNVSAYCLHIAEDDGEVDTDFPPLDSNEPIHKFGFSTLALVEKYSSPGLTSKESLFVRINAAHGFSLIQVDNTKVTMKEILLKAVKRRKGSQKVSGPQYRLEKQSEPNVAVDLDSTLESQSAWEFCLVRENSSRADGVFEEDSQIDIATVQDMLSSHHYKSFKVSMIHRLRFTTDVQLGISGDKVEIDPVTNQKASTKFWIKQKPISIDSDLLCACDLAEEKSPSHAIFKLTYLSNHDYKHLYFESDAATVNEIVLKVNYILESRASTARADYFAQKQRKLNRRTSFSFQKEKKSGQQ
T2 sequence (Q9BVC4 whole entry, other chains not shown): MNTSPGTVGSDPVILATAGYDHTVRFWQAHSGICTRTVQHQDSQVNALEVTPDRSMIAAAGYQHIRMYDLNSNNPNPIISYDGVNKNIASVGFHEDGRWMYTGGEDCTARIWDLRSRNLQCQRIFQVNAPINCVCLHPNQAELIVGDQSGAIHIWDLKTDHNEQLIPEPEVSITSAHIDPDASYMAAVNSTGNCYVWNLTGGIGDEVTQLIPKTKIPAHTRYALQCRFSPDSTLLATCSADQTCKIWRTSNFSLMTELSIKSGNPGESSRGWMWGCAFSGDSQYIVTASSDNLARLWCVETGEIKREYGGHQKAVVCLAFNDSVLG

mTORC1 [4] = molecular target: T1, mTORC1; assay: Inhibition of mTORC1 (unknown origin) assessed as measuring phosphorylated p7OS6K level at 0.2 uM relative to control; assay type: protein-complex assay
mTORC1 [5] = molecular target: T1, mTORC1; assay: Inhibition of mTORC1 (unknown origin) assessed as measuring phosphorylated 4EBP1 level at 1 uM relative to control; assay type: protein-complex assay
[6] = molecular target: Peptidyl-prolyl cis-trans isomerase FKBP1A (Homo sapiens, UniProt P62942); assay: Binding affinity to FKBP12 (unknown origin) assessed as inhibition constant
Chain of Peptidyl-prolyl cis-trans isomerase FKBP1A (P62942 whole entry, canonical isoform): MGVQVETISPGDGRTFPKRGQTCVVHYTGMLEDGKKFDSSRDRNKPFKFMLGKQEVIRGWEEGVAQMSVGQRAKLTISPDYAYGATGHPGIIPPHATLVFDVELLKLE

[7] = molecular target: T3, Phosphatidylinositol 4,5-bisphosphate 3-kinase catalytic subunit delta isoform (Homo sapiens, UniProt O00329); assay: Inhibition of human PI3Kdelta preincubated for 15 mins followed by ATP addition measured after 1 hr by TR-FRET assay
T3 sequence (O00329 whole entry): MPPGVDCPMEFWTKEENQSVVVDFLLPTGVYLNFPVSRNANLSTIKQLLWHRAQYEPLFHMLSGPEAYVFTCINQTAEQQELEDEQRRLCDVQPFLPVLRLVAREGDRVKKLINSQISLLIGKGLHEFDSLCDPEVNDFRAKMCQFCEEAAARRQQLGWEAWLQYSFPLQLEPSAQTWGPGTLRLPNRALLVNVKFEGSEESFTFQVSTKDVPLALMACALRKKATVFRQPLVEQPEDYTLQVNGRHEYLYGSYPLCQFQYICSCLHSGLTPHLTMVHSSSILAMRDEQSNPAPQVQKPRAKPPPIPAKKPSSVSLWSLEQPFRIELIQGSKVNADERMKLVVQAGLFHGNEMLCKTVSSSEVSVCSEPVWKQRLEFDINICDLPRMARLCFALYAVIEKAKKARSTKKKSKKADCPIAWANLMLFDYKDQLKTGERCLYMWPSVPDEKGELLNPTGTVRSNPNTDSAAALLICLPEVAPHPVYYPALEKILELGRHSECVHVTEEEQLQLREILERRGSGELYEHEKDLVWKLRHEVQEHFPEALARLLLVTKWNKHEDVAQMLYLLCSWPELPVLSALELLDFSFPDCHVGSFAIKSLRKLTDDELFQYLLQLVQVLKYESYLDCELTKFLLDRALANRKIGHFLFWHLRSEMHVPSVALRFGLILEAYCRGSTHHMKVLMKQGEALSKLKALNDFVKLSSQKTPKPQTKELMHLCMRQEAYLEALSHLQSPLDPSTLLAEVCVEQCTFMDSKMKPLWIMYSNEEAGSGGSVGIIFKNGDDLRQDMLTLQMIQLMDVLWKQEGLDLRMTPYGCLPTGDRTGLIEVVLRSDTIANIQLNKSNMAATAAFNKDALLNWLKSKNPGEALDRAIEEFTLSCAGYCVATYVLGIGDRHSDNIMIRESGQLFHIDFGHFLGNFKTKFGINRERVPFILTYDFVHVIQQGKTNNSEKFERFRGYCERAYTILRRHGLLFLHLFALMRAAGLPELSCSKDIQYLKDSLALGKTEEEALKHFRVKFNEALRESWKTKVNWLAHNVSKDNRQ

mTORC1 [8] = molecular target: T1, mTORC1; assay: Inhibition of mTORC1 (unknown origin); assay type: protein-complex assay
[9] = molecular target: Phosphatidylinositol 4,5-bisphosphate 3-kinase catalytic subunit gamma isoform (Homo sapiens, UniProt P48736); assay: Inhibition of human PI3Kgamma preincubated for 15 mins followed by ATP addition measured after 1 hr by TR-FRET assay
mTORC1 [10] = molecular target: T1, mTORC1; assay: Inhibition of mTORC1 in human MDA-MB-468 cells assessed as measuring phosphorylated P70S6K incubated for 2 to 4 hrs by AlphaLISA assay; assay type: cell-based
mTORC1 [11] = molecular target: T1, mTORC1; assay: Inhibition of mTORC1 in human MDA-MB-468 cells assessed as measuring phosphorylated 4EBP1 incubated for 2 to 4 hrs by AlphaLISA assay; assay type: cell-based
mTORC2 [12] = molecular target: T2, mTORC2; assay: Inhibition of mTORC2 in human MDA-MB-468 cells assessed as measuring phosphorylated AKT incubated for 2 to 4 hrs by AlphaLISA assay; assay type: cell-based
[13] = molecular target: Serine/threonine-protein kinase mTOR (Homo sapiens, UniProt P42345); assay: Inhibition of human mTOR assessed as measuring phosphorylated p70S6K level by TR-FRET assay

Chain of PI3-kinase p110-alpha/p85-alpha (P27986 whole entry): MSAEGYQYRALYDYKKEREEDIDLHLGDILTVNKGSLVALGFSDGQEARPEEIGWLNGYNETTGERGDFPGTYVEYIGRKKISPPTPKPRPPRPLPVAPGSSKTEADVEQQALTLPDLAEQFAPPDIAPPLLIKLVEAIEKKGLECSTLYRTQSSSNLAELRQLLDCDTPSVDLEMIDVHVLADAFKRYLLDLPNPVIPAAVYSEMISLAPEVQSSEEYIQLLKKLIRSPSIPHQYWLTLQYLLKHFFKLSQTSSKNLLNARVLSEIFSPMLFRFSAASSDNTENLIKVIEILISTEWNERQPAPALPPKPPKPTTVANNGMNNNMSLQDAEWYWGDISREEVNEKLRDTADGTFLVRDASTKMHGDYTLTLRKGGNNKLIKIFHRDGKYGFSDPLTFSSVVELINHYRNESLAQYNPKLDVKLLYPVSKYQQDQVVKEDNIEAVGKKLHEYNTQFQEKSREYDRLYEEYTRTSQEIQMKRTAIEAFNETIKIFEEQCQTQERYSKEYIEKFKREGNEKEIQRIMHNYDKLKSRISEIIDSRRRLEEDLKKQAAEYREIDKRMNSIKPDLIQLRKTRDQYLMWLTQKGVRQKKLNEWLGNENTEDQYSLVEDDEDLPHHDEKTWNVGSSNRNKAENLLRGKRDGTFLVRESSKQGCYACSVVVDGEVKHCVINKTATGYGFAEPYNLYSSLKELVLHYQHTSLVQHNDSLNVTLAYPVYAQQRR
Chain of PI3-kinase p110-alpha/p85-alpha (P42336 whole entry): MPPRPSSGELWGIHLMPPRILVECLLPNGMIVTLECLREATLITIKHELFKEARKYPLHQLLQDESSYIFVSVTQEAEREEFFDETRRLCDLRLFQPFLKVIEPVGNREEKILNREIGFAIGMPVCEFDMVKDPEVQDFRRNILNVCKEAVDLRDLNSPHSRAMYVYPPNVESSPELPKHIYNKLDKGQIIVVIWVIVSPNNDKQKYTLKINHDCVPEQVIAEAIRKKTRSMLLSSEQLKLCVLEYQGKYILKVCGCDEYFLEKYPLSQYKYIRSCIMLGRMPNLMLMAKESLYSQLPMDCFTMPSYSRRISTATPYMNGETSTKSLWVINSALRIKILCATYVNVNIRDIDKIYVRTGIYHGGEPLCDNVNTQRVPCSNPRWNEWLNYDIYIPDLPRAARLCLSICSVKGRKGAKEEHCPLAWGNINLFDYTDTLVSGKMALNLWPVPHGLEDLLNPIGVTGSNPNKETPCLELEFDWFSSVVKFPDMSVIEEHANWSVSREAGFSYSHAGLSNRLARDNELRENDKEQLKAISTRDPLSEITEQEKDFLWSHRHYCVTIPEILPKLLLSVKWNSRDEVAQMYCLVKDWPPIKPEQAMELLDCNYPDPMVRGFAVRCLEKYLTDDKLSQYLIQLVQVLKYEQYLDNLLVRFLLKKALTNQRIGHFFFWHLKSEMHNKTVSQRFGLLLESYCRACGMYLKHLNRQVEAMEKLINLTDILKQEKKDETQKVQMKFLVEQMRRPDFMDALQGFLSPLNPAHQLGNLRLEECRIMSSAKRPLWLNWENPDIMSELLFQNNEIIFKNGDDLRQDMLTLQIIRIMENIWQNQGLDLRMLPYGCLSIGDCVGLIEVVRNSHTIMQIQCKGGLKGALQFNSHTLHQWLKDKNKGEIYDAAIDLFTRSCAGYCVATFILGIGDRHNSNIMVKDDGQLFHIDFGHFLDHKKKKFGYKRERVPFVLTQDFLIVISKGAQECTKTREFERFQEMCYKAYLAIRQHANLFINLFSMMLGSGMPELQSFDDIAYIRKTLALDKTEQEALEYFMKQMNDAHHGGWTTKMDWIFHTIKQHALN

IC50 (mTORC1 [2]): < 0.316 nM | IC50 (mTORC2 [3]): > 10000 nM
Compound: CO[C@@H]1C[C@H](C[C@@H](C)[C@@H]2CC(=O)[C@H](C)/C=C(\C)[C@@H](O)[C@@H](OC)C(=O)[C@H](C)C[C@H](C)/C=C/C=C/C=C(\C)C(OCCO)C[C@@H]3CC[C@@H](C)[C@@](O)(O3)C(=O)C(=O)N3CCCC[C@H]3C(=O)O2)CC[C@H]1OCCCN1C[C@@H](C)O[C@@H](C)C1 (some centres undefined)

inhibition (mTORC1 [4]): 87.7% | inhibition (mTORC1 [5]): 61%
Compound: CNC(=O)c1cccc(-c2ccc3c(N4CCOC[C@@H]4C)nc(N4CCOc5ccccc54)nc3n2)c1

Ki [6]: 4.2 nM
Compound: CO[C@@H]1C[C@@H]2CC[C@@H](C)[C@@](O)(O2)C(=O)C(=O)N2CCCC[C@H]2C(=O)OC([C@H](C)C[C@@H]2CC[C@@H](O)[C@H](O)C2)C/C=C(\C)[C@@H](O)CC(=O)[C@H](C)C[C@H](C)/C=C/C=C/C=C/1C (some centres undefined)

IC50 [1]: < 1000 nM
Compound: Cc1cc(Oc2nc(-c3ccc(N)nc3)nc(N3CCOCC3)n2)ccc1C(=O)N(C)C

Ki [6]: 5.9 nM
Compound: CO[C@@H]1C[C@@H]2CC[C@@H](C)[C@@](O)(O2)C(=O)C(=O)N2CCCC[C@H]2C(=O)OC([C@H](C)C[C@@H]2CC[C@@H](O)[C@H](OC)C2)C/C=C(\C)[C@@H](O)CC(=O)[C@H](C)C[C@H](C)/C=C/C=C/C=C/1C (some centres undefined)

IC50 (mTORC1 [2]): < 0.316 nM | IC50 (mTORC2 [3]): > 10000 nM
Compound: CO[C@@H]1C[C@H](C[C@@H](C)[C@@H]2CC(=O)[C@H](C)/C=C(\C)[C@@H](O)[C@@H](OC)C(=O)[C@H](C)C[C@H](C)/C=C/C=C/C=C(\C)C(OCCO)C[C@@H]3CC[C@@H](C)[C@@](O)(O3)C(=O)C(=O)N3CCCC[C@H]3C(=O)O2)CC[C@H]1OC(=O)NCCc1ccccc1 (some centres undefined)

IC50 (mTORC1 [10]): ≤ 1 nM | IC50 (mTORC1 [11]): ≤ 3.16 nM | IC50 (mTORC2 [12]): > 31.6 nM
Compound: CO[C@H]1C[C@@H]2CC[C@@H](C)[C@@](O)(O2)C(=O)C(=O)N2CCCC[C@H]2C(=O)O[C@H]([C@H](C)C[C@@H]2CC[C@@H](O)[C@H](OC)C2)C[C@@H](O)[C@H](C)/C=C(\C)[C@@H](O)[C@@H](OC)/C(=N\OCc2cn(-c3cnc(N4CCN(c5ncc(C(=O)NCCOCCC(=O)NCCCCn6nc(-c7ccc8oc(N)nc8c7)c7c(N)ncnc76)cn5)CC4)nc3)nn2)[C@H](C)C[C@H](C)C\C=C/C=C/C=C/1C

IC50 (mTORC1 [2]): < 0.316 nM | IC50 (mTORC2 [3]): > 10000 nM
Compound: CO[C@@H]1C[C@H](C[C@@H](C)[C@@H]2CC(=O)[C@H](C)/C=C(\C)[C@@H](O)[C@@H](OC)C(=O)[C@H](C)C[C@H](C)/C=C/C=C/C=C(\C)C(OCCO)C[C@@H]3CC[C@@H](C)[C@@](O)(O3)C(=O)C(=O)N3CCCC[C@H]3C(=O)O2)CC[C@H]1OCCCN1CCOC(C)(C)C1 (some centres undefined)

IC50 (mTORC1 [2]): < 0.316 nM | IC50 (mTORC2 [3]): > 10000 nM
Compound: CO[C@@H]1C[C@H](C[C@@H](C)[C@@H]2CC(=O)[C@H](C)/C=C(\C)[C@@H](O)[C@@H](OC)C(=O)[C@H](C)C[C@H](C)/C=C/C=C/C=C(\C)C(OCCO)C[C@@H]3CC[C@@H](C)[C@@](O)(O3)C(=O)C(=O)N3CCCC[C@H]3C(=O)O2)CC[C@H]1OCCCN1CCOC[C@H]1C (some centres undefined)

Continued, compound first:

Compound: CN(C)C(=O)c1ccc(Oc2nc(-c3cnc(N)cc3C(F)(F)F)nc(N3CCOCC3)n2)c(F)c1
IC50 [1]: < 1000 nM

Compound: C[C@H]1COCCN1c1nc(Oc2ccc(C(=O)N(C)C)cc2)nc(-c2cnc(N)s2)n1
IC50 [1]: < 1000 nM

Compound: CC(C)n1nc(-c2cc3cc(O)cc(F)c3[nH]2)c2c(N)ncnc21
IC50 [7]: 50 nM | IC50 (mTORC1 [8]): < 5 nM | IC50 [9]: 100 nM

Compound: C\C1=C/C=C/C=C/[C@@H](C)C[C@@H](C)C(=O)C[C@H](O)/C(C)=C/CC([C@H](C)C[C@H]2CC[C@H](O)CC2)OC(=O)[C@@H]2CCCCN2C(=O)C(=O)[C@]2(O)O[C@@H](CC[C@H]2C)C[C@H]1O (some centres undefined)
Ki [6]: 7.7 nM

Compound: C[C@H]1COC[C@H](C)N1c1nc(Oc2ccc(C(=O)N(C)C)cc2)nc(-c2cnc(N)s2)n1
IC50 [1]: < 1000 nM

Compound: C[C@H]1COCCN1c1cc2nc(-c3cccc(CO)c3)ccc2c(N2CCOC[C@@H]2C)n1
IC50 [13]: < 100 nM
